Legend:
Format in all cases: functional
Settings in all cases: 120 h
Tetranychus urticae [1] = assay: Acaricidal activity against Tetranychus urticae (two-spotted spider mite) in kidney bean leaf assessed as mortality at 500 ppm at 25 degC measured after 5 days
Tetranychus urticae [2] = assay: Acaricidal activity against Tetranychus urticae (two-spotted spider mite) in kidney bean leaf assessed as mortality at 50 ppm at 25 degC measured after 5 days
Tetranychus urticae [3] = assay: Acaricidal activity against Tetranychus urticae (two-spotted spider mite) in kidney bean leaf assessed as mortality at 200 ppm at 25 degC measured after 5 days
Tetranychus urticae [4] = assay: Acaricidal activity against Tetranychus urticae (two-spotted spider mite) in kidney bean leaf assessed as mortality at 3.1 ppm at 25 degC measured after 5 days
Tetranychus urticae [5] = assay: Acaricidal activity against Tetranychus urticae (two-spotted spider mite) in kidney bean leaf assessed as mortality at 12.5 ppm at 25 degC measured after 5 days

Compound	mortality at 500 ppm (Tetranychus urticae [1])	mortality at 50 ppm (Tetranychus urticae [2])	mortality at 200 ppm (Tetranychus urticae [3])	mortality at 3.1 ppm (Tetranychus urticae [4])	mortality at 12.5 ppm (Tetranychus urticae [5])
Cc1ncsc1C(=O)NCc1ccc(C(C)(C)C)cc1	30%	0%	0%	0%	0%
Cc1nc(C)c(C(=O)NCc2ccc(C(C)(C)C)cc2)s1	100%	100%	100%	0%	0%
CCc1cc(C(=O)NCc2ccc(C(C)(C)C)cc2)nn1C	0%	0%	0%	0%	0%
CCn1cc(C(=O)NCc2ccc(C(C)(C)C)cc2)c(C)n1	100%	100%	100%	0%	30%
CCn1ncc(C(=O)NCc2ccc(C(C)(C)C)cc2)c1C	0%	0%	0%	0%	0%
Cc1cc(C(=O)NCc2ccc(C(C)(C)C)cc2)n(C)n1	100%	100%	100%	0%	30%
CCc1cc(C(=O)NCc2ccc(C(C)(C)C)cc2)n(C)n1	100%	100%	100%	0%	100%
CCc1nc(C)c(C(=O)N(C)Cc2ccc(C(C)(C)C)cc2)s1	100%	100%	100%	0%	30%
CCn1nc(C)cc1C(=O)NCc1ccc(C(C)(C)C)cc1	0%	0%	0%	0%	0%
Cc1nn(C)cc1C(=O)NCc1ccc(C(C)(C)C)cc1	100%	0%	80%	0%	0%
